According to ChEMBL document CHEMBL3046441, “Importance of physicochemical properties for the design of new pesticides” (J Agric Food Chem, 2011):

What was measured:
[1] = Dissociation constant, pKa of the compound at pH 7.3; type: physicochemical
[2] = Apparent hydrophobicity, log D of the compound in Octanol-buffer; type: physicochemical; details: for logD: octanol/buffer; for logD(app): octanol/water
[3] = system: Periplaneta americana; assay: Toxic effect in Periplaneta americana (American cockroach) assessed as paralyzed insects after 24 hr of abdomen compound injection by insecticidal assay; type: functional
[4] = biological target: T1, Nicotinic acetylcholine receptor alpha8 subunit (Periplaneta americana) (UniProt H6TY12); assay: Neuroblocking activity in Periplaneta americana (American cockroach) nicotinic acetylcholine receptor in abdominal fifth and sixth ganglia nerve assessed as neuroblocking concentration by neurophysiological test
T1 sequence (whole entry): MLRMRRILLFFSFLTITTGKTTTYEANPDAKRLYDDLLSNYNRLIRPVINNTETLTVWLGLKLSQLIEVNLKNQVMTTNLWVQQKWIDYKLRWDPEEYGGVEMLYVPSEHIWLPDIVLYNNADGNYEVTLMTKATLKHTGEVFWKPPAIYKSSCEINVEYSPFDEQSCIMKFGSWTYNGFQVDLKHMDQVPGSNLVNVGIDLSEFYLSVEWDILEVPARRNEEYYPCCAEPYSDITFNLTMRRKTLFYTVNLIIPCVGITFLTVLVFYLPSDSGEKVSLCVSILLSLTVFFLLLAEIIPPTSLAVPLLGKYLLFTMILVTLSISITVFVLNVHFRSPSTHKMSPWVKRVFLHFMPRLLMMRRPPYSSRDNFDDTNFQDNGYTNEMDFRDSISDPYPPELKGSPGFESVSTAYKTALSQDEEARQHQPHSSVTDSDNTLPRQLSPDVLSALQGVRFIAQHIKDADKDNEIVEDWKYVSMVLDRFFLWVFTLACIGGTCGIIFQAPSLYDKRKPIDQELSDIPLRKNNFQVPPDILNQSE

[5] = Hydrophobicity, log P of the compound in octanol-water by shaking-flask method; type: physicochemical

SMILES	pKa [1]	logD [2]	other results
CC(C)NCC(O)COc1cccc2[nH]ccc12 (stereo not given) [PINDOLOL]	2.24	0.25	–
COc1ccc(CCN(C)CCCC(C#N)(c2ccc(OC)c(OC)c2)C(C)C)cc1OC (stereo not given)	1.36	–	–
C[C@]12CCC(=O)C=C1CC[C@@H]1[C@@H]2[C@@H](O)C[C@@]2(C)[C@H]1CC[C@]2(O)C(=O)CO [HYDROCORTISONE]	0	1.61	–
C[C@]12C=CC(=O)C=C1CC[C@@H]1[C@@H]2[C@@H](O)C[C@@]2(C)[C@H]1CC[C@]2(O)C(=O)CO [PREDNISOLONE]	0	–	–
C[C@@H]1C[C@H]2[C@@H]3CCC4=CC(=O)C=C[C@]4(C)[C@@]3(F)[C@@H](O)C[C@]2(C)[C@@]1(O)C(=O)CO [DEXAMETHASONE]	0	2.01	–
O=C(N[C@H](CO)[C@H](O)c1ccc([N+](=O)[O-])cc1)C(Cl)Cl [CHLORAMPHENICOL]	0	–	–
O=[N+]([O-])/C=C1\NCCN1Cc1cnc(Cl)s1	–	–	log(1/MLD) [3]: 10.24; log(1/BC) [4]: 5.73
O=c1ccc2ccccc2o1 [COUMARIN]	0	–	–
COP(=S)(OC)Oc1ccc(SC)c(C)c1 [FENTHION]	0	4.09	–
CC(C)(C)N(NC(=O)c1ccccc1)C(=O)c1ccccc1 [RH-5849]	0	2.45	–
O=[N+]([O-])/N=c1\sccn1Cc1ccc(Cl)nc1	–	–	log(1/MLD) [3]: 10.25; log(1/BC) [4]: 5.68
COc1ccc([C@@H]2Sc3ccccc3N(CCN(C)C)C(=O)[C@@H]2OC(C)=O)cc1 [DILTIAZEM]	0.76	2.29	–
C[C@]12CC[C@H]3[C@@H](CCC4=CC(=O)CC[C@@]43C)[C@@H]1CC[C@@H]2O [TESTOSTERONE]	0	–	–
O=[N+]([O-])/N=c1\ccccn1Cc1ccc(Cl)nc1	–	–	log(1/MLD) [3]: 9.99; log(1/BC) [4]: 5.09
Cc1c(F)c(F)c(COC(=O)[C@@H]2[C@H](/C=C(\Cl)C(F)(F)F)C2(C)C)c(F)c1F [TEFLUTHRIN]	–	–	logP [5]: 6
CCc1ccc(C(=O)NN(C(=O)c2cc(C)cc(C)c2)C(C)(C)C)cc1 [TEBUFENOZIDE]	0	–	–
CC(=O)Nc1ccc(OCC(O)CNC(C)C)cc1 (stereo not given) [PRACTOLOL]	2.1	-0.62	–
CC(C(=O)O)c1cccc(C(=O)c2ccccc2)c1 (stereo not given) [KETOPROFEN]	–	1.1	–
Cc1c(N(C)C)c(=O)n(-c2ccccc2)n1C [AMINOPYRINE]	0	–	–
CN1CCN(Cc2ccc(Cl)nc2)/C1=N/[N+](=O)[O-]	–	–	log(1/MLD) [3]: 8.62; log(1/BC) [4]: 3.81
O=[N+]([O-])/N=C1\NCCN1Cc1ccc(Cl)nc1 [IMIDACLOPRID]	–	–	log(1/MLD) [3]: 10.15; log(1/BC) [4]: 5.64
Clc1cccc(Cl)c1N=C1NCCN1 [CLONIDINE]	0.75	0.93	–

SMILES	pKa [1]	logD [2]	other results
CC(=O)Nc1ccc(O)cc1 [ACETAMINOPHEN]	0	–	–
CC(C)N1C(=O)c2ccccc2NS1(=O)=O [BENTAZON]	–	–	logP [5]: 2.8
O=[N+]([O-])/N=C1\NCCCN1Cc1ccc(Cl)nc1	–	–	log(1/MLD) [3]: 10.12; log(1/BC) [4]: 5.35
Cc1cc(C)cc(C(=O)N(NC(=O)c2ccc3c(c2C)CCCO3)C(C)(C)C)c1 [CHROMAFENOZIDE]	–	2.7	–
CCCN(CCC)c1c([N+](=O)[O-])cc(C(F)(F)F)cc1[N+](=O)[O-] [TRIFLURALIN]	–	–	logP [5]: 5.07
O=[N+]([O-])/C=C1\CCCN1Cc1ccc(Cl)nc1	–	–	log(1/MLD) [3]: 10.44; log(1/BC) [4]: 6.43
C=CCOc1ccccc1OCC(O)CNC(C)C (stereo not given) [OXPRENOLOL]	2.3	0.56	–
CCOP(=S)(NC(C)CC)Oc1cc(C)ccc1[N+](=O)[O-] (stereo not given) [BUTAMIFOS]	0	4.62	–
CC(C)c1cc(NC(=O)N(C)C)no1 [ISOURON]	–	–	logP [5]: 1.98
COP(=S)(OC)Oc1ccc([N+](=O)[O-])c(C)c1 [FENITROTHION]	0	3.3	–
O=[N+]([O-])NC1=NCCN1Cc1ccc(Cl)nc1 [IMIDACLOPRID]	0	0.59	–
O=[N+]([O-])/N=c1\sccn1Cc1cnc(Cl)s1	–	–	log(1/MLD) [3]: 8.85; log(1/BC) [4]: 5.79
O=C(O)c1ccccc1O [SALICYLIC ACID]	–	-0.63	–
CC(C)(C)N(NC(=O)c1ccc(Cl)cc1)C(=O)c1ccccc1 [HALOFENOZIDE]	0	3.22	–
CC(CCc1ccccc1)NCC(O)c1ccc(O)c(C(N)=O)c1 (stereo not given) [LABETALOL]	2.1	1.68	–
COc1cccc(C(=O)NN(C(=O)c2cc(C)cc(C)c2)C(C)(C)C)c1C [METHOXYFENOZIDE]	0	3.7	–
O=[N+]([O-])/C=C1\CCCN1Cc1cnc(Cl)s1	–	–	log(1/MLD) [3]: 10.06; log(1/BC) [4]: 6.31
O=[N+]([O-])/N=C1\SCCN1Cc1cnc(Cl)s1	–	–	log(1/MLD) [3]: 8.91; log(1/BC) [4]: 6
CC(C)(C)NCC(O)COc1cccc2c1CC(O)C(O)C2 (stereo not given) [NADOLOL]	2.37	-0.88	–
CN1CCN(CC(=O)N2c3ccccc3C(=O)Nc3cccnc32)CC1 [PIRENZEPINE]	0.7	–	logD(app) [2]: -0.37
C[C@]12C[C@H](O)[C@H]3[C@@H](CCC4=CC(=O)CC[C@@]43C)[C@@H]1CC[C@@H]2C(=O)CO [CORTICOSTERONE]	0	1.94	–
O=[N+]([O-])/N=C1\NCCN1Cc1cnc(Cl)s1 [IMIDACLOTHIZ]	–	–	log(1/MLD) [3]: 9.62; log(1/BC) [4]: 5.97

SMILES	pKa [1]	logD [2]	other results
COCCc1ccc(OCC(O)CNC(C)C)cc1 (stereo not given) [METOPROLOL]	–	0.24	–
CCn1cc(C(=O)O)c(=O)c2cc(F)c(N3CCNCC3)cc21 [NORFLOXACIN]	2.08	–	logD(app) [2]: -2.42
CCOC(=O)C(SP(=S)(OC)OC)c1ccccc1 (stereo not given) [PHENTHOATE]	0	3.96	logP [5]: 3.96
CN1C(C(=O)Nc2ccccn2)=C(O)c2ccccc2S1(=O)=O [PIROXICAM]	–	0.49	–
C=CCc1ccccc1OCC(O)CNC(C)C (stereo not given) [ALPRENOLOL]	–	1.35	logP [5]: 2.89
O=[N+]([O-])/C=C1\NCCN1Cc1ccc(Cl)nc1	–	–	log(1/MLD) [3]: 10.19; log(1/BC) [4]: 5.02
CCC(C)c1ccccc1OC(=O)NC (stereo not given) [FENOBUCARB]	0	2.78	–
CCN(CC)C(=O)SCc1ccc(Cl)cc1 [THIOBENCARB]	0	3.42	–
CCCC(=O)Nc1ccc(OCC(O)CNC(C)C)c(C(C)=O)c1 (stereo not given) [ACEBUTOLOL]	2.11	–	–
O=C1NC(=O)C(c2ccccc2)(c2ccccc2)N1 [PHENYTOIN]	–	2.26	–
Cc1cc(=O)n(-c2ccccc2)n1C [ANTIPYRINE]	0	–	–
CC(C)Cc1ccc(C(C)C(=O)O)cc1 (stereo not given) [IBUPROFEN]	–	1.54	–
O=[N+]([O-])/C=C1\SCCN1Cc1ccc(Cl)nc1	–	–	log(1/MLD) [3]: 10.37; log(1/BC) [4]: 6.19
COc1nn(CSP(=S)(OC)OC)c(=O)s1 [METHIDATHION]	0	2.5	–
O=[N+]([O-])/N=c1\ccccn1Cc1cnc(Cl)s1	–	–	log(1/MLD) [3]: 9.74; log(1/BC) [4]: 5.75
CNC(=C[N+](=O)[O-])NCCSCc1ccc(CN(C)C)o1 [RANITIDINE]	0.88	–	logD(app) [2]: -0.32
COP1(=S)OCc2ccccc2O1 (stereo not given) [SALITHION]	0	2.67	–
CCOP(=S)(OCC)Oc1cc(C)nc(C(C)C)n1 [DIMPYLATE]	–	3.3	–
CCNc1nc(Cl)nc(NC(C)C)n1 [ATRAZINE]	–	2.61	–
O=[N+]([O-])Nc1nccn1Cc1ccc(Cl)nc1 [DEHYDROIMIDACLOPRID]	–	–	log(1/MLD) [3]: 8.72; log(1/BC) [4]: 4.31
O=[N+]([O-])/N=c1\[nH]ccn1Cc1cnc(Cl)s1	–	–	log(1/MLD) [3]: 8.82; log(1/BC) [4]: 4.61
CN1CCN(Cc2ccc(Cl)nc2)/C1=C/[N+](=O)[O-]	–	–	log(1/MLD) [3]: 8.07; log(1/BC) [4]: 3.84
